Results taken from patent publication US8293231B2, “Methods and compositions for treating ischemia” (Blue Blood Biotech Corp., priority 2005, dated 2012).

Legend:
[1] = system: MMP-1, MMP-2, MMP-3, and MMP-9 in HUVEC conditioned medium; experiment: Gelatin and casein zymographies; type: cell-based, human; conditions: gelatin zymography
Method: (§1) HUVECs were seeded at 80% confluence on 100-mm dishes in M199 medium. After 24 h, cells were rinsed with serum-free M199 twice and incubated in serum-free M199 with various concentrations of TMD23, VEGF (10 ng/mL), or PMA (70 ng/mL) for 12 h. The conditioned medium containing […] secreted proteins was analyzed by gelatin- and casein-based zymographies. The digested area appeared clear on a blue background, indicating the location of matrix metalloproteinase (MMP) activity. To further verify MMP caseinolytic activity, the casein-containing gel was incubated with incubation buffer containing 10 mM EDTA, an inhibitor of MMPs, to observe disappearance of the clear band. Plasminogen activator inhibitor (PAI) activity was measured by titrating samples with increasing amounts of tissue-type plasminogen activator (t-PA) (Boehringer Ingelheim) into a fixed volume of endothelial-cell-conditioned media.
as §1, with “zymographies. Lee O H, et al., Identification of angiogenic properties of insulin-like growth factor II in in vitro angiogenesis models. Brit J. Cancer. 2000; 82:385-391.” for “zymographies.”, “media. Shi G Y., et al., Plasmin and the regulation of tissue-type plasminogen activator biosynthesis in human endothelial cells. […]” for “media.”

rat cornea = experiment: Rat corneal angiogenesis assay; type: in vivo, Sprague Dawley rats
Method: (§2) The rat corneal assay was performed as described elsewhere. See eg., Kenyon B M., et al A model of angiogenesis in the mouse cornea. Invest Opthalmol Vis Sci. 1996; 37:1625-1632. Uniformly sized pellets of Hydron (polyhydroxyethylmethacrylate [poly HEMA]) (Sigma-Aldrich) containing either TMD23 or basic fibroblast growth factor (bFGF) and sucralfate (Sigma-Aldrich) were implanted into the rat corneal stroma adjacent to the temporal limbus. Briefly, sterile-saline suspensions containing 5-40 μg TMD23 or bFGF plus 10 mg sucralfate were made and speed vacuumed for 5 min; 12% Hydron in ethanol was added as described. The suspension was deposited onto an autoclaved, sterilized, 15-mm×15-mm nylon mesh. […] The eyes of Sprague Dawley rats (250-300 g) were topically anesthetized and a single pellet was inserted into a surgically created pocket in the corneal stroma. Corneas were examined daily with a dissecting microscope for up to 24 days for capillary growth. Maximal vessel length, clock h, and vascular areas of corneas of all rats were measured with a slit-lamp stereomicroscope.
as §2, with “elsewhere.” for “elsewhere. See eg., Kenyon B M., et al A model of angiogenesis in the mouse cornea. Invest Opthalmol Vis Sci. 1996; 37:1625-1632.”, “clock hour,” for “clock h,”

In the case of “TMD23: Recombinant human thrombomodulin fragment, amino acids Ala242-Ser515 of SEQ ID NO: 2: six EGF-like structures (D2) plus Ser/Thr-rich domain D3”, the “Expression of MMP-2 and MMP-9” value ([1]; 12 h) is reported as “no significant effect”, the “Expression of MMP-1/3” value ([1]; MMP-3 confirmed by caseinolytic zymography) is reported as “stimulated expression” and the “Day of maximal response” value (rat cornea; 90-ng dose) is reported as 10 days. For the same substance, the “Maximal response compared with bFGF” value (rat cornea; 90-ng dose, day 10) was “slightly greater than the response to 90 ng bFGF”, the Corneal neovascularization (rat cornea; implants in rat cornea) was “induced dose-dependent and time-dependent corneal neovascularization” and the “Day of complete abrogation of angiogenic response” value (rat cornea; response regressed gradually after day 10) was no more than 24 days.
